Experimental findings from patent US20100197590A1, “4-AMINO-7,8-DIHYDROPYRIDO[4,3-d]PYRIMIDIN-5(6H)-ONE DERIVATIVES” (Pfizer Inc, priority 2009, published 2010) are described below.

The test concerns the target T1, Human full-length diacylglycerol:acylCoA acyltransferase 1 (DGAT-1) (Homo sapiens, UniProt O75907).
T1 construct: Human full-length diacylglycerol:acylCoA acyltransferase 1 (DGAT-1) was expressed in Sf9 insect cells; made in house; host or cells: Sf9 insect cells (baculovirus)
T1 sequence (O75907 1-488): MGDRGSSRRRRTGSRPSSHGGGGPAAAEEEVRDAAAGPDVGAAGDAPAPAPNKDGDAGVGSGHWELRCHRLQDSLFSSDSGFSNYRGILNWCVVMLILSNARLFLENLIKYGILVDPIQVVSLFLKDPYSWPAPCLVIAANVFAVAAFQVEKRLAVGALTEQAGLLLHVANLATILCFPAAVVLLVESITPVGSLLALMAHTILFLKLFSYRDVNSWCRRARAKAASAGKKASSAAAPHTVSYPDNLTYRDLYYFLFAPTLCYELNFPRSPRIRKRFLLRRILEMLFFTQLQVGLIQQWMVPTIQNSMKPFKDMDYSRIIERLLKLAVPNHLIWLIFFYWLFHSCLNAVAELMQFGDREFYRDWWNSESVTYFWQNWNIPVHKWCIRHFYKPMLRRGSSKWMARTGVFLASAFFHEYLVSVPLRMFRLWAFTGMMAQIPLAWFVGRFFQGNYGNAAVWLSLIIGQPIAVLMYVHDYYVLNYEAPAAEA
The experiment in a line: In vitro DGAT-1 inhibition, Assay 1. Format: biochemical. Particulars: Sf9 microsomes at 25 μg/mL, [14C]decanoylCoA, eight inhibitor concentrations; average where n > 1. The method, then: Human full-length diacylglycerol:acylCoA acyltransferase 1 (DGAT-1) was expressed in Sf9 insect cells which are then lysed and a crude membrane fraction (105,000×g pellet) was prepared. The DGAT-1 gene is a human DGAT-1 gene described in J Biol Chem 273:26765 (1998) and U.S. Pat. No. 6,100,077.
In vitro inhibition of DGAT-1 was measured using a modification, further described below, of the assay methodology described in U.S. Pat. No. 6,994,956 B2. The cells were cultured as follows. Sf9 cells (20 L) were infected with 4 mL of DGAT-1 Baculovirus Infected Insect Cells (BIIC) for 72 hours in a Wave Bioreactor System 20/50P (Wave Biotec/GE Healthcare).
Crude DGAT-1 microsomes were prepared as follows. Cell pellets were washed once with ice-cold Dulbecco's phosphate-buffered saline. Cells were collected in tabletop centrifuge (Beckman GS-6KR), 15 minutes, 2000×g, 4° C. Twenty (20) mL of ice-cold Microsome Buffer (MB) was added per 5 g of cell pellet. The suspension was passed through a microfluidizer 3 times (18K psi). […] The microsome concentration was determined using Bio-Rad Protein DC Protein Assay. […]
The Microsome Buffer, used for microsome preparation, was prepared by conventional means and contained 125 mM sucrose, 3 mM imidazole, 0.2 μg/mL aprotinin, 0.2 μg/mL leupeptin and 5 mM dithiothreitol (Cleland's reagent) at pH-7.4 DGAT-1 activity was measured in 384-well format in a total assay volume of 20 μl that contained, Hepes buffer (50 mM, pH 7.5), MgCl2 (10 mM), bovine serum albumin (0.6 mg/ml), [^14C]decanoylCoA (25 μM, 58 Ci/mol) and microsomes (5.6 μg/ml) into which 1,2 dioleoyl-sn-glycerol (75 μM) in acetone has already been incorporated. […]
The reactions were allowed to proceed for 1.5 h at room temperature and then terminated by the addition of 20 μl of EDTA (40 mM). […] Plates contents were allowed to partition for 15 to 30 min before ^14C was measured in a scintillation spectrometer (Wallac Microbeta Trilux 1450-030, 12 detector in the top-count DPM mode). […]
The compound `Cc1nc(N)c2c(n1)CCN(c1ccc([C@H]3CC[C@H](CC(=O)O)CC3)cc1)C2=O` [Example 14, {trans-4-[4-(4-amino-2-methyl-5-oxo-7,8-dihydropyrido[4,3-d]pyrimidin-6(5H)-yl)phenyl]cyclohexyl}acetic acid] registered a concentration for half-maximal inhibition (IC50) of 618 nM.

On to `Cc1nc(N)c2c(n1)CCN(c1ccc(C3CCC(CC(=O)O)CC3)cc1)C2=O` (stereo not drawn) [Example 13, 2-(4-(4-(4-amino-2-methyl-5-oxo-7,8-dihydropyrido[4,3-d]pyrimidin-6(5H)-yl)phenyl)cyclohexyl)acetic acid], for which inhibition was half-maximal at 231 nM (IC50). `Cc1nc(N)c2c(n1)CCN(c1ccc([C@H]3CC[C@@H](CC(=O)O)CC3)cc1)C2=O` [Example 15, {cis-4-[4-(4-amino-2-methyl-5-oxo-7,8-dihydropyrido[4,3-d]pyrimidin-6(5H)-yl)phenyl]cyclohexyl}acetic acid] gave a half-inhibitory concentration (IC50) of 717 nM.

A word on the IC50: it is the concentration needed to halve the response being measured.
